This note sets out measurements from patent EP2022493A1, “Composition comprising at least one optically active phthalamide derivative for controlling animal parasites” (Bayer CropScience AG, priority 2007, dated 2009).

Data set [1] is described as follows: Determination of the logP values by HPLC on reversed-phase column (C 18). The class given is physicochemical. On the procedure: Determination of the logP values:
The lambda max values were determined in the maxima of the chromatographic signals using the UV spectra from 190 nm to 400 nm.

A further data set relates to Boophilus microplus. Put plainly: Boophilus microplus - test (injection into adult ticks). Format: in vivo. The following applies: application rate of 20 µg/animal; injected into the abdomen of adult ticks; seven days. On the procedure:
Boophilus microplus - test Solvent: dimethylsulfoxide To produce a suitable preparation of active compound, 1 part by weight of active compound is mixed with the stated amount of solvent, and the concentrate is diluted with containing solvent to the desired concentration. Adult ticks (Boophilus microplus) are treated by injected with compound solution of the desired concentration into the abdomen. Ticks are transferred into replica plates and incubated in a climate chamber for seven days. Eggs which are not clearly fertile or infertile are further incubated for another 35 days until larvae hatch from the untreated controls. After the specified period of time, the laying of fertile eggs in % is determined. 100 % means that all eggs have been fertile; 0 % means that none of the eggs have been fertile.

A further data set has as its system Musca domestica. Put plainly: Musca domestica - test. Format: in vivo. As to conditions: adults; for mortality at 100 ppm: application rate of 100ppm; for mortality at 20 ppm: application rate of 20ppm. The procedure: (§1) Solvent: dimethyl sulfoxide
(§2) To produce a suitable preparation of active compound, 10 mg of active compound are dissolved in 0.5 ml solvent, and the concentrate is diluted with water to the desired concentration.
Prior to the assay, a piece or kitchen sponge is soaked with a mixture of sugar and compound solution and placed into a container. 10 adults (Musca domestica) are placed into the container and closed with a perforated lid.
After the specified period of time, mortality in % is determined. 100 % means that all the flies have been killed; 0 % means that none of the flies have been killed.

Another data set concerns Lucilia cuprina larvae. The data set can be described thus: Lucilia cuprina - test (larvae). The class given is in vivo. The following applies: in Ovis aries, read-out: activity (mortality in %). The procedure: as §1, §2
Approximately 20 -30 (Lucilia cuprina larvae) are transferred into a test tube containing 1cm^3 of minced horse meat and 0.5 ml aqueous dilution of test compound.
After the specified period of time, mortality in % is determined. 100 % means that all the larvae have been killed; 0 % means that none of the larvae have been killed.

Where [2] appears, read: 0.001 m aqueous nh4hco3/acetonitrile, method [c]: 0.001 molar aqueous NH4HCO3 solution and acetonitrile at pH 7.8, linear gradient from 10 % to 95 % acetonitrile (v/v), HPLC reversed-phase C 18, 40 °C.
Where [3] appears, read: 0.1% aqueous phosphoric acid/acetonitrile, method [a]: 0.1% aqueous phosphoric acid and acetonitrile at pH 2.3, linear gradient from 10 to 95 % (v/v) acetonitrile, HPLC reversed-phase C 18, 40 °C.
[4] abbreviates: 0.001 m aqueous nh4hco3/acetonitrile, HPLC, reversed-phase C 18, 40 °C, [c] 0.001 molar aqueous NH4HCO3 solution and acetonitrile at pH 7.8, linear gradient from 10 % to 95 % acetonitrile (v/v).
Where [5] appears, read: 0.1% aqueous phosphoric acid/acetonitrile, HPLC, reversed-phase C 18, 40 °C, [a] 0.1% aqueous phosphoric acid and acetonitrile at pH 2.3, linear gradient from 10 to 95 % (v/v) acetonitrile.

A value given as a limit tells only on which side of the number the result lay.

The chromatographic logP is a lipophilicity value derived from retention on a column. Low values mean lower lipophilicity, high ones higher lipophilicity. For orientation: mortality means the percentage killed. For `Cc1cc(C(F)(C(F)(F)F)C(F)(F)F)ccc1NC(=O)c1cccc(I)c1C(=O)N[C@@H](C)CS(C)(=O)=O` [Compound 1], the chromatographic logP amounted to 3.2 in data set [1] (setting [2]) and 3.18 in data set [1] (setting [3]). Further, in the data set with Boophilus microplus, the “activity (laying of fertile eggs in %)” value is listed as not below 80%. The mortality at 100 ppm in the data set on Musca domestica and with Lucilia cuprina larvae was not below 80% each time.

On to `Cc1cc(C(F)(C(F)(F)F)C(F)(F)F)ccc1NC(=O)c1cccc(Cl)c1C(=O)N[C@@H](C)CS(C)(=O)=O` [Compound 80], for which, in the data set with Boophilus microplus, the “activity (laying of fertile eggs in %)” value is reported as not below 80%. For the same molecule, the mortality at 100 ppm in the data set with Musca domestica and in the data set on Lucilia cuprina larvae was not below 80% in each case.

For `CCSC[C@H](C)NC(=O)c1c(I)cccc1C(=O)Nc1ccc(C(C(F)F)C(F)(F)F)cc1C` (stereo partly drawn) [Compound 210], the values for the chromatographic logP in data set [1] (setting [4]) and in data set [1] (setting [5]) were 3.62 and 3.63, respectively. Further, in the data set on Boophilus microplus, the “activity (laying of fertile eggs in %)” value is listed as not below 80%. Besides, the mortality at 100 ppm with Musca domestica and in the data set on Lucilia cuprina larvae was not below 80% each time.

With `CCSC[C@H](C)NC(=O)c1c(I)cccc1C(=O)Nc1ccc(C(F)(C(F)F)C(F)(F)F)cc1C` (stereo partly drawn) [Compound 218], the chromatographic logP in data set [1] (setting [4]) and in data set [1] (setting [5]) was 3.96 each time. Besides, in the data set on Boophilus microplus, the “activity (laying of fertile eggs in %)” value is on record as not below 80%. Besides, the mortality at 100 ppm with Musca domestica and with Lucilia cuprina larvae was not below 80% in each case.

For `CSC[C@H](C)NC(=O)c1c(I)cccc1C(=O)Nc1ccc(C(C(F)F)C(F)(F)F)cc1Br` (stereo partly drawn) [Compound 227], the chromatographic logP in data set [1] (setting [4]) is 3.54; in data set [1] (setting [5]), 3.51. Further, the “activity (laying of fertile eggs in %)” value in the data set on Boophilus microplus is on record as not below 80%. Moreover, the mortality at 100 ppm with Musca domestica and with Lucilia cuprina larvae was not below 80% each time.

As to `CCSC[C@H](C)NC(=O)c1c(I)cccc1C(=O)Nc1ccc(C(C(F)F)C(F)(F)F)cc1Cl` (stereo partly drawn) [Compound 235], the chromatographic logP is 3.79 in data set [1] (setting [4]) and 3.76 in data set [1] (setting [5]). In addition, the “activity (laying of fertile eggs in %)” value with Boophilus microplus is listed as not below 80%. Further, the mortality at 100 ppm with Musca domestica and in the data set on Lucilia cuprina larvae was not below 80% each time.

Turning to `CCSC[C@H](C)NC(=O)c1c(I)cccc1C(=O)Nc1ccc(C(C(F)F)C(F)(F)F)cc1Br` (stereo partly drawn) [Compound 243], the chromatographic logP worked out at 3.8 in data set [1] (setting [4]) and 3.78 in data set [1] (setting [5]). The “activity (laying of fertile eggs in %)” value in the data set with Boophilus microplus is not below 80%. Further, the mortality at 100 ppm in the data set with Musca domestica and with Lucilia cuprina larvae was not below 80% in each case.

Turning to `CCS(=O)(=O)C[C@H](C)NC(=O)c1c(I)cccc1C(=O)Nc1ccc(C(F)(C(F)F)C(F)(F)F)cc1Cl` (stereo partly drawn) [Compound 251], the chromatographic logP in data set [1] (setting [4]) worked out at 3.18; in data set [1] (setting [5]), 3.12. Further, the “activity (laying of fertile eggs in %)” value in the data set with Boophilus microplus is not below 80%. For the same molecule, the mortality at 100 ppm in the data set with Musca domestica and with Lucilia cuprina larvae was not below 80% throughout.

Regarding `C[C@@H](CS(C)(=O)=O)NC(=O)c1c(I)cccc1C(=O)Nc1ccc(C(C(F)F)C(F)(F)F)cc1F` (stereo partly drawn) [Compound 291], the figures for the chromatographic logP in data set [1] (setting [4]) and in data set [1] (setting [5]) were 2.54 and 2.5, respectively. For the same molecule, the “activity (laying of fertile eggs in %)” value in the data set with Boophilus microplus was not below 80%. For the same molecule, the mortality at 100 ppm in the data set with Musca domestica and in the data set on Lucilia cuprina larvae was not below 80% in each case.

Turning to `CCS(=O)(=O)C[C@H](C)NC(=O)c1c(I)cccc1C(=O)Nc1ccc(C(C(F)F)C(F)(F)F)cc1Br` (stereo partly drawn) [Compound 299], the chromatographic logP in data set [1] (setting [4]) was 2.92; in data set [1] (setting [5]), 2.87. In addition, the “activity (laying of fertile eggs in %)” value in the data set with Boophilus microplus is not below 80%. Moreover, the mortality at 100 ppm in the data set with Musca domestica and in the data set on Lucilia cuprina larvae was not below 80% throughout.

For `CCS(=O)(=O)C[C@H](C)NC(=O)c1c(I)cccc1C(=O)Nc1ccc(C(C(F)F)C(F)(F)F)cc1F` (stereo partly drawn) [Compound 315], the chromatographic logP in data set [1] (setting [4]) is 2.69; in data set [1] (setting [5]), 2.65. In addition, the “activity (laying of fertile eggs in %)” value in the data set on Boophilus microplus is reported as not below 80%. Further, the mortality at 100 ppm in the data set with Musca domestica and in the data set on Lucilia cuprina larvae was not below 80% in each case.

Consider `Cc1c(NC(=O)c2cccc(I)c2C(=O)N[C@@H](C)C[S+](C)[O-])ccc(C(F)(F)C(F)(F)F)c1F` (stereo partly drawn) [Compound 323], for which, in data set [1] (setting [5]), the chromatographic logP stood at 2.5. The “activity (laying of fertile eggs in %)” value with Boophilus microplus is on record as not below 80%. Also, the mortality at 100 ppm in the data set on Musca domestica and in the data set on Lucilia cuprina larvae was not below 80% in each case.

The molecule `Cc1c(NC(=O)c2cccc(Cl)c2C(=O)N[C@@H](C)CS(C)(=O)=O)ccc(C(F)(F)C(F)(F)F)c1F` [Compound 363] had a chromatographic logP in data set [1] (setting [5]) of 2.82. Moreover, in the data set with Boophilus microplus, the “activity (laying of fertile eggs in %)” value is not below 80%. Further, the mortality at 100 ppm in the data set on Musca domestica and in the data set with Lucilia cuprina larvae was not below 80% in each case.

Turning to `Cc1cc(C(F)(C(F)F)C(F)(F)F)ccc1NC(=O)c1cccc(Cl)c1C(=O)N[C@@H](C)CS(C)(=O)=O` (stereo partly drawn) [Compound 371], the chromatographic logP in data set [1] (setting [2]) amounted to 2.64; in data set [1] (setting [3]), 2.61. Moreover, the “activity (laying of fertile eggs in %)” value in the data set on Boophilus microplus is on record as not below 80%. In addition, the mortality at 100 ppm with Musca domestica and in the data set on Lucilia cuprina larvae was not below 80% in each case.

For the molecule `CCS(=O)(=O)C[C@H](C)NC(=O)c1c(Cl)cccc1C(=O)Nc1ccc(C(F)(F)C(F)(F)F)c(F)c1C` [Compound 372], the chromatographic logP in data set [1] (setting [3]) is 3.01. For the same molecule, the “activity (laying of fertile eggs in %)” value with Boophilus microplus is recorded as not below 80%. Moreover, the mortality at 20 ppm with Musca domestica was not below 80%. The mortality at 100 ppm with Lucilia cuprina larvae is not below 80%.

With `CSC[C@H](C)NC(=O)c1c(Cl)cccc1C(=O)Nc1ccc(C(F)(C(F)(F)F)C(F)(F)F)cc1C` [Compound 390], in the data set on Boophilus microplus, the “activity (laying of fertile eggs in %)” value is recorded as not below 80%. Further, the mortality at 100 ppm in the data set on Musca domestica and with Lucilia cuprina larvae was not below 80% in each case.

In the case of `CSC[C@H](C)NC(=O)c1c(Br)cccc1C(=O)Nc1ccc(C(F)(C(F)(F)F)C(F)(F)F)c(F)c1C` [Compound 398], in data set [1] (setting [3]), the chromatographic logP is 4.31. Besides, in the data set on Boophilus microplus, the “activity (laying of fertile eggs in %)” value is listed as not below 80%. Moreover, the mortality at 100 ppm in the data set with Musca domestica and with Lucilia cuprina larvae was not below 80% in each case.

For the molecule `Cc1c(NC(=O)c2cccc(Cl)c2C(=O)N[C@@H](C)C[S+](C)[O-])ccc(C(C(F)(F)F)C(F)(F)F)c1F` (stereo partly drawn) [Compound 406], the chromatographic logP in data set [1] (setting [2]) is 2.41; in data set [1] (setting [3]) it was 2.5. Also, in the data set on Boophilus microplus, the “activity (laying of fertile eggs in %)” value is reported as not below 80%. In addition, the mortality at 100 ppm in the data set on Musca domestica and in the data set on Lucilia cuprina larvae was not below 80% in each case.

With `Cc1cc(C(C(F)(F)F)C(F)(F)F)c(F)cc1NC(=O)c1cccc(Cl)c1C(=O)N[C@@H](C)C[S+](C)[O-]` (stereo partly drawn) [Compound 414], the values for the chromatographic logP in data set [1] (setting [2]) and in data set [1] (setting [3]) were 2.51 and 2.58, respectively. In addition, the “activity (laying of fertile eggs in %)” value with Boophilus microplus was not below 80%. Further, the mortality at 100 ppm with Musca domestica and in the data set with Lucilia cuprina larvae was not below 80% in each case.

On to `CSC[C@H](C)NC(=O)c1c(I)cccc1C(=O)Nc1ccc(C(F)(C(F)(F)F)C(F)(F)F)c(F)c1C` [Compound 423], for which the chromatographic logP in data set [1] (setting [3]) amounted to 4.41. Besides, the “activity (laying of fertile eggs in %)” value in the data set on Boophilus microplus is not below 80%. Besides, the mortality at 100 ppm with Musca domestica and in the data set on Lucilia cuprina larvae was not below 80% each time.

Turning to `CCS(=O)(=O)C[C@H](C)NC(=O)c1c(Br)cccc1C(=O)Nc1ccc(C(C)(F)C(F)F)cc1Br` (stereo partly drawn) [Compound 424], the chromatographic logP in data set [1] (setting [3]) was 3.06. In addition, in the data set on Boophilus microplus, the “activity (laying of fertile eggs in %)” value was not below 80%. In the data set with Musca domestica, this molecule yielded a mortality at 20 ppm not below 80% and a mortality at 100 ppm not below 80%. In addition, in the data set with Lucilia cuprina larvae, the mortality at 100 ppm is not below 80%.
